Laboratory results reported in the supplement of paper PMC10307832.

Experiments:
Test in all cases: relative viability (nuclei count vs DMSO), 5 days (fraction); higher = more cells survive
SW 1573 = test system: SW 1573
Method in brief: (§1)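 Lung cancer cell lines in 1536-well plates were dosed by pin tool the day after seeding, either with one drug alone or with a fixed anchor-drug dose plus five library-drug doses (not always all listed) in √10 steps. After 5 days, cells were fixed and their nuclei stained in one step (final 0.05% Triton X-100, 1% formaldehyde, 1 ug/ml Hoechst), then counted on 4× images. Relative viability is the nuclei count in treated wells divided by that in vehicle wells. Values are medians of duplicate plates.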

NCI-H1651 = test system: NCI-H1651
Method in brief: as §1

NCI-H2347 = test system: NCI-H2347
Method in brief: as §1

LCLC-103H = test system: LCLC-103H
Method in brief: as §1

NCI-H2087 = test system: NCI-H2087
Method in brief: as §1

HCC-827 = test system: HCC-827
Method in brief: as §1

NCI-H1793 = test system: NCI-H1793
Method in brief: as §1

COR-L23 = test system: COR-L23
Method in brief: as §1

NCI-H1915 = test system: NCI-H1915
Method in brief: as §1

A-427 = test system: A-427
Method in brief: as §1

LK-2 = test system: LK-2
Method in brief: as §1

HCC-44 = test system: HCC-44
Method in brief: as §1

Compound: O=c1[nH]c2ccccc2n1C1CCN(CCCC(c2ccc(F)cc2)c2ccc(F)cc2)CC1 [Pimozide] + Nc1nc2[nH]cc(CCc3ccc(C(=O)N[C@@H](CCC(=O)O)C(=O)O)cc3)c2c(=O)[nH]1 [Pemetrexed] (partner 0.2 µM)
- relative viability (SW 1573; first compound 0.253 µM): 0.849
- relative viability (SW 1573; first compound 0.8 µM): 0.831
- relative viability (SW 1573; first compound 2.53 µM): 0.665
- relative viability (SW 1573; first compound 8 µM): 0.558
- relative viability (NCI-H1651; first compound 0.08 µM): 0.603
- relative viability (NCI-H1651; first compound 0.253 µM): 0.487
- relative viability (NCI-H1651; first compound 0.8 µM): 0.697
- relative viability (NCI-H1651; first compound 2.53 µM): 0.562
- relative viability (NCI-H1651; first compound 8 µM): 0.566
- relative viability (NCI-H2347; first compound 0.08 µM): 0.406
- relative viability (NCI-H2347; first compound 0.253 µM): 0.449
- relative viability (NCI-H2347; first compound 0.8 µM): 0.42
- relative viability (NCI-H2347; first compound 2.53 µM): 0.368
- relative viability (NCI-H2347; first compound 8 µM): 0.475
- relative viability (LCLC-103H; first compound 0.08 µM): 0.435
- relative viability (LCLC-103H; first compound 0.253 µM): 0.425
- relative viability (LCLC-103H; first compound 0.8 µM): 0.471
- relative viability (LCLC-103H; first compound 2.53 µM): 0.385
- relative viability (LCLC-103H; first compound 8 µM): 0.468
- relative viability (NCI-H2087; first compound 0.08 µM): 0.655
- relative viability (NCI-H2087; first compound 0.253 µM): 0.608
- relative viability (NCI-H2087; first compound 2.53 µM): 0.616
- relative viability (NCI-H2087; first compound 8 µM): 0.642
- relative viability (HCC-827; first compound 0.253 µM): 0.228
- relative viability (HCC-827; first compound 0.8 µM): 0.258
- relative viability (HCC-827; first compound 2.53 µM): 0.289
- relative viability (HCC-827; first compound 8 µM): 0.254
- relative viability (NCI-H1793; first compound 0.08 µM): 0.807
- relative viability (NCI-H1793; first compound 0.253 µM): 0.798
- relative viability (NCI-H1793; first compound 0.8 µM): 0.8
- relative viability (NCI-H1793; first compound 2.53 µM): 0.829
- relative viability (NCI-H1793; first compound 8 µM): 0.676
- relative viability (COR-L23; first compound 0.08 µM): 0.2
- relative viability (COR-L23; first compound 0.253 µM): 0.192
- relative viability (COR-L23; first compound 0.8 µM): 0.19
- relative viability (COR-L23; first compound 2.53 µM): 0.192
- relative viability (COR-L23; first compound 8 µM): 0.192
- relative viability (NCI-H1915; first compound 0.08 µM): 0.482
- relative viability (NCI-H1915; first compound 0.253 µM): 0.415
- relative viability (NCI-H1915; first compound 2.53 µM): 0.448
- relative viability (NCI-H1915; first compound 8 µM): 0.423
- relative viability (A-427; first compound 0.08 µM): 0.992
- relative viability (A-427; first compound 0.253 µM): 0.979
- relative viability (A-427; first compound 0.8 µM): 0.928
- relative viability (A-427; first compound 2.53 µM): 0.899
- relative viability (A-427; first compound 8 µM): 0.845
- relative viability (LK-2; first compound 0.08 µM): 0.243
- relative viability (LK-2; first compound 0.253 µM): 0.268
- relative viability (LK-2; first compound 0.8 µM): 0.335
- relative viability (LK-2; first compound 8 µM): 0.265
- relative viability (HCC-44; first compound 0.08 µM): 0.67
- relative viability (HCC-44; first compound 0.253 µM): 0.666
- relative viability (HCC-44; first compound 0.8 µM): 0.577
- relative viability (HCC-44; first compound 2.53 µM): 0.618
- relative viability (HCC-44; first compound 8 µM): 0.577
